Data as given in patent US12539292B2, “BRM targeting compounds and associated methods of use” (Arvinas Operations, Inc., priority 2018, dated 2026).
Read-outs that look alike come from different tables or passages of the source. Blank lines part the entries; values can stand above or below the molecule they belong to.

Target: T1, BRM (Homo sapiens, UniProt P51531)
T1 construct: In-Cell Western Screen of BRM Degradation in SW1573 Cells; endogenous in cells; host or cells: SW1573
Assay: In-cell Western screen of BRM degradation in SW1573 cells (Dmax and DC50)
Type: cell-based
In short: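 SW1573 cells were treated overnight (18-20 hours) with compound at 0.1% final DMSO. They were then PFA-fixed, permeabilised with Triton X-100 and immunostained with 800 nm/680 nm secondary antibodies. BRM signal was quantified by LI-COR in-cell Western imaging to derive Dmax and DC50.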

[1] = degradation of BRM, read-out: BRM DC50
[2] = BRM degradation, SW1573 cells, Table 2D, read-out: **Dmax (%) (% degraded)
[3] = BRM degradation, SW1573 cells, Table 2D, read-out: *DC50
[4] = BRM degradation, SW1573 cells, read-out: DC50
[5] = BRM degradation, SW1573 cells, read-out: Dmax (% degraded)
[6] = BRM degradation, SW1573 cells, tested at the top concentration of between 0.3 and 10 μM, read-out: Dmax (%) (% degraded)
[7] = BRM degradation, SW1573 cells, when tested at the top concentration of between 0.3 and 10 μM, read-out: Dmax (%) (% degraded)

T1 sequence (P51531 whole entry): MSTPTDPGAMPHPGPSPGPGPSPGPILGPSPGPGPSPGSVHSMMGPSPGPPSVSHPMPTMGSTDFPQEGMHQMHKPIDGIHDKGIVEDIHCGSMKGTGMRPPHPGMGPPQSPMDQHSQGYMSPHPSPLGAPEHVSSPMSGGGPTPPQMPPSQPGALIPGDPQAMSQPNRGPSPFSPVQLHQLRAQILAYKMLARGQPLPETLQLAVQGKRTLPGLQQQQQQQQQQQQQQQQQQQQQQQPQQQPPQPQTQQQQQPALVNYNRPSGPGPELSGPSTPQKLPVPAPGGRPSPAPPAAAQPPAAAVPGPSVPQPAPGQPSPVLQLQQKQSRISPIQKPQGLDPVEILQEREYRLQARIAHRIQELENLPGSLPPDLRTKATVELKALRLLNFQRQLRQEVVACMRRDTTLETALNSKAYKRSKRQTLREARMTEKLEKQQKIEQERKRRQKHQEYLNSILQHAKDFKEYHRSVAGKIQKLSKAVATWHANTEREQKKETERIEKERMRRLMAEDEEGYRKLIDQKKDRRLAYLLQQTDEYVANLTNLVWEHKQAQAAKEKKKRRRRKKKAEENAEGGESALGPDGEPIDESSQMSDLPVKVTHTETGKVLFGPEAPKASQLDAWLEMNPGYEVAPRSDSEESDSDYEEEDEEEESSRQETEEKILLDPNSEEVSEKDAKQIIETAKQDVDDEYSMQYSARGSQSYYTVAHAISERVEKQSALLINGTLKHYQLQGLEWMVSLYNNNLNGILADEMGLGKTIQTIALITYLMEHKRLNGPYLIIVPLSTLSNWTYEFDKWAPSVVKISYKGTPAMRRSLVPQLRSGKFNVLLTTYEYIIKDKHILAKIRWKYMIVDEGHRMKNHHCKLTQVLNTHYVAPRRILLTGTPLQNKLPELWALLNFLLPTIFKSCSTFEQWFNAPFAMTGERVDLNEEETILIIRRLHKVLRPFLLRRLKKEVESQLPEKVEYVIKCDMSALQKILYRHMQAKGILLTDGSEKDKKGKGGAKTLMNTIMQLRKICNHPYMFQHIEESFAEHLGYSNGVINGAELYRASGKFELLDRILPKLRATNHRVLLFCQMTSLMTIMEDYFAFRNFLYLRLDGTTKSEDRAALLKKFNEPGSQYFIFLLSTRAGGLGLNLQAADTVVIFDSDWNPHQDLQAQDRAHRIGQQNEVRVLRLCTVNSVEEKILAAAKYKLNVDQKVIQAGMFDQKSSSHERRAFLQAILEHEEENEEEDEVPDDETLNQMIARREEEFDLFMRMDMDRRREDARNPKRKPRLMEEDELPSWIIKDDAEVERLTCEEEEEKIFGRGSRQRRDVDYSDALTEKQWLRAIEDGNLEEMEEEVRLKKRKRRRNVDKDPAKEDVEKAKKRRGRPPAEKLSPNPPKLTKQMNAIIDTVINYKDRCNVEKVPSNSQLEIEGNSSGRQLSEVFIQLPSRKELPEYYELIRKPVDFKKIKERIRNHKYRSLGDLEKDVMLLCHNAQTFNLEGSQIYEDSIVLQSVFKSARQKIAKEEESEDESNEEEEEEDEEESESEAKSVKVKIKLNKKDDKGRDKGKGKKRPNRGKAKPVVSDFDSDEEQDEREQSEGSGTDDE

SMILES: CC(C)[C@H](C(=O)N1C[C@H](O)C[C@H]1C(=O)NCc1ccc(C2(F)CC2)cc1)c1cc(OCCN2CCC(O[C@H]3C[C@H](Oc4cc(N5C6CCC5CN(c5cc(-c7ccccc7O)nnc5N)C6)ccn4)C3)CC2)no1 [compound 418, (2S,4R)-1-((2S)-2-(3-(2-(4-((1r,3S)-3-((4-(3-(3-amino-6-(2-hydroxyphenyl)pyridazin-4-yl)-3,8-diazabicyclo[3.2.1]octan-8-yl)pyridin-2-yl)oxy)cyclobutoxy)piperidin-1-yl)ethoxy)isoxazol-5-yl)-3-methylbutanoyl)-N-(4-(1-fluorocyclopropyl)benzyl)-4-hydroxypyrrolidine-2-carboxamide]
DC50 [1]: > 30 nM

SMILES: Cc1ncsc1-c1ccc([C@H](C)NC(=O)[C@@H]2C[C@@H](O)CN2C(=O)[C@H](c2cc(OCC(F)(F)CN3CCC(O[C@H]4C[C@H](Oc5cc(N6C7CCC6CN(c6cc(-c8ccccc8O)nnc6N)C7)ccn5)C4)CC3)no2)C(C)C)cn1 [compound 421, (2S,4R)-1-((2S)-2-(3-(3-(4-((1r,3S)-3-((4-(3-(3-amino-6-(2-hydroxyphenyl)pyridazin-4-yl)-3,8-diazabicyclo[3.2.1]octan-8-yl)pyridin-2-yl)oxy)cyclobutoxy)piperidin-1-yl)-2,2-difluoropropoxy)isoxazol-5-yl)-3-methylbutanoyl)-4-hydroxy-N-((S)-1-(6-(4-methylthiazol-5-yl)pyridin-3-yl)ethyl)pyrrolidine-2-carboxamide]
DC50 [1]: > 30 nM

SMILES: Cc1ncsc1-c1ccc([C@H](C)NC(=O)[C@@H]2C[C@@H](O)CN2C(=O)[C@@H](c2cc(OCC[C@@H]3CCN(C[C@H]4C[C@H](Oc5cc(N6C7CCC6CN(c6cc(-c8ccccc8O)nnc6N)C7)ccn5)C4)[C@H](C)[C@@H]3C)no2)C(C)C)cc1 (single isomer, unassigned) [compound 584]
Dmax [2]: > 75%
DC50 [3]: < 2.5 nM

DC50 [3]: > 30 nM
SMILES: Cc1ncsc1-c1ccc([C@H](C)NC(=O)[C@@H]2C[C@@H](O)CN2C(=O)[C@H](c2cc(OCC[C@@H]3CCN(C[C@H]4C[C@H](Oc5cc(N6C7CCC6CN(c6cc(-c8ccccc8O)nnc6N)C7)ccn5)C4)[C@H](C)[C@@H]3C)no2)C(C)C)cc1 (single isomer, unassigned) [compound 583]

SMILES: Cc1ncsc1-c1ccc([C@H](C)NC(=O)[C@@H]2C[C@@H](O)CN2C(=O)[C@H](c2cc(OCCN3CCC(OC4CN(c5cc(N6C7CCC6CN(c6cc(-c8ccccc8O)nnc6N)C7)ccn5)C4)CC3)no2)C(C)C)cc1 [compound 354, (2S,4R)-1-((2S)-2-(3-(2-(4-((1-(4-(3-(3-amino-6-(2-hydroxyphenyl)pyridazin-4-yl)-3,8-diazabicyclo[3.2.1]octan-8-yl)pyridin-2-yl)azetidin-3-yl)oxy)piperidin-1-yl)ethoxy)isoxazol-5-yl)-3-methylbutanoyl)-4-hydroxy-N-((S)-1-(4-(4-methylthiazol-5-yl)phenyl)ethyl)pyrrolidine-2-carboxamide]
Dmax (SW1573, % degraded, when tested at the top concentration of between 0.3 and 10 μM, read-out: BRM Dmax (%)): > 75%
DC50 (target protein degradation, read-out: BRM DC50): 2.5 to 10 nM

SMILES: Cc1ncsc1-c1ccc([C@H](C)NC(=O)[C@@H]2C[C@@H](O)CN2C(=O)[C@@H](c2cc(N3CCC4(CC3)CN(CC3CCN(C[C@H]5C[C@H](Oc6cc(N7C8CCC7CN(c7cc(-c9ccccc9O)nnc7N)C8)ccn6)C5)CC3)C4)no2)C(C)C)cc1 [compound 695, (2S,4R)-1-((2R)-2-(3-(2-((1-(((1r,3r)-3-((4-(3-(3-amino-6-(2-hydroxyphenyl)pyridazin-4-yl)-3,8-diazabicyclo[3.2.1]octan-8-yl)pyridin-2-yl)oxy)cyclobutyl)methyl)piperidin-4-yl)methyl)-2,7-diazaspiro[3.5]nonan-7-yl)isoxazol-5-yl)-3-methylbutanoyl)-4-hydroxy-N-((S)-1-(4-(4-methylthiazol-5-yl)phenyl)ethyl)pyrrolidine-2-carboxamide]
DC50 [4]: < 2.5 nM
Dmax [5]: > 75%

SMILES: COc1cc(-c2scnc2C)ccc1[C@H](C)NC(=O)[C@@H]1C[C@@H](O)CN1C(=O)[C@H](c1cc(OCCN2CCC(O[C@H]3C[C@H](Oc4cc(N5C6CCC5CN(c5cc(-c7ccccc7O)nnc5N)C6)ccn4)C3)CC2)no1)C(C)C [compound 201, (2S,4R)-1-((2S)-2-(3-(2-(4-((1r,3S)-3-((4-(3-(3-amino-6-(2-hydroxyphenyl)pyridazin-4-yl)-3,8-diazabicyclo[3.2.1]octan-8-yl)pyridin-2-yl)oxy)cyclobutoxy)piperidin-1-yl)ethoxy)isoxazol-5-yl)-3-methylbutanoyl)-4-hydroxy-N-((S)-1-(2-methoxy-4-(4-methylthiazol-5-yl)phenyl)ethyl)pyrrolidine-2-carboxamide]
DC50 [4]: 10 to 30 nM
Dmax [6]: > 75%

SMILES: Cc1ncsc1-c1ccc(CNC(=O)[C@@H]2C[C@@H](O)CN2C(=O)[C@@H](NC(=O)COCCOCCOCCOCCOCCOc2cc(N3[C@@H]4CC[C@H]3CN(c3cc(-c5ccccc5O)nnc3N)C4)ccn2)C(C)(C)C)cc1 [compound 9, (2S,4R)-1-((S)-20-((4-((1R,5S)-3-(3-amino-6-(2-hydroxyphenyl)pyridazin-4-yl)-3,8-diazabicyclo[3.2.1]octan-8-yl)pyridin-2-yl)oxy)-2-(tert-butyl)-4-oxo-6,9,12,15,18-pentaoxa-3-azaicosanoyl)-4-hydroxy-N-(4-(4-methylthiazol-5-yl)benzyl)pyrrolidine-2-carboxamide]
DC50 [4]: 2.5 to 10 nM
Dmax [7]: > 75%

SMILES: Cc1ncsc1-c1cc(F)c([C@@H](C)NC(=O)[C@@H]2C[C@@H](O)CN2C(=O)[C@H](c2cc(OCCN3CCC(O[C@H]4C[C@H](Oc5cc(N6C7CCC6CN(c6cc(-c8ccccc8O)nnc6N)C7)ccn5)C4)CC3)no2)C(C)C)cn1 [compound 542, (2S,4R)-1-((2S)-2-(3-(2-(4-((1r,3S)-3-((4-(3-(3-amino-6-(2-hydroxyphenyl)pyridazin-4-yl)-3,8-diazabicyclo[3.2.1]octan-8-yl)pyridin-2-yl)oxy)cyclobutoxy)piperidin-1-yl)ethoxy)isoxazol-5-yl)-3-methylbutanoyl)-N-((R)-1-(4-fluoro-6-(4-methylthiazol-5-yl)pyridin-3-yl)ethyl)-4-hydroxypyrrolidine-2-carboxamide]
DC50 [3]: > 30 nM

SMILES: Cc1ncsc1-c1ccc([C@@H](NC(=O)[C@@H]2C[C@@H](O)CN2C(=O)[C@H](c2cc(OCCN3CCN(CCOc4cc(N5C6CCC5CN(c5cc(-c7ccccc7O)nnc5N)C6)ccn4)CC3)no2)C(C)C)C(F)F)cc1 [compound 173, (2S,4R)-1-((2S)-2-(3-(2-(4-(2-((4-(3-(3-amino-6-(2-hydroxyphenyl)pyridazin-4-yl)-3,8-diazabicyclo[3.2.1]octan-8-yl)pyridin-2-yl)oxy)ethyl)piperazin-1-yl)ethoxy)isoxazol-5-yl)-3-methylbutanoyl)-N-((R)-2,2-difluoro-1-(4-(4-methylthiazol-5-yl)phenyl)ethyl)-4-hydroxypyrrolidine-2-carboxamide]
DC50 [4]: > 30 nM
Dmax [6]: > 75%

SMILES: Cc1ncsc1-c1ccc([C@H](C)NC(=O)[C@@H]2C[C@@H](O)CN2C(=O)[C@@H](c2cc(N3CCC(CN4CCC(O[C@H]5C[C@H](Oc6cc(N7C8CCC7CN(c7cc(-c9ccccc9O)nnc7N)C8)ccn6)C5)CC4)CC3)no2)C(C)C)c(F)c1F [compound 679, (2S,4R)-1-((2R)-2-(3-(4-((4-((1r,3r)-3-((4-(3-(3-amino-6-(2-hydroxyphenyl)pyridazin-4-yl)-3,8-diazabicyclo[3.2.1]octan-8-yl)pyridin-2-yl)oxy)cyclobutoxy)piperidin-1-yl)methyl)piperidin-1-yl)isoxazol-5-yl)-3-methylbutanoyl)-N-((S)-1-(2,3-difluoro-4-(4-methylthiazol-5-yl)phenyl)ethyl)-4-hydroxypyrrolidine-2-carboxamide]
DC50 [4]: < 2.5 nM
Dmax [5]: > 75%

SMILES: Cc1ncsc1-c1ccc([C@H](C)NC(=O)[C@@H]2C[C@@H](O)CN2C(=O)[C@@H](c2cc(OCCN3CC[C@H](OCCc4cc(N5C6CCC5CN(c5cc(-c7ccccc7O)nnc5N)C6)ccn4)C[C@@H]3C)no2)C(C)C)cc1 (racemic) [compound 568, (2S,4R)-1-((2R)-2-(3-(2-((2S,4S)-4-(2-(4-(3-(3-amino-6-(2-hydroxyphenyl)pyridazin-4-yl)-3,8-diazabicyclo[3.2.1]octan-8-yl)pyridin-2-yl)ethoxy)-2-methylpiperidin-1-yl)ethoxy)isoxazol-5-yl)-3-methylbutanoyl)-4-hydroxy-N-((S)-1-(4-(4-methylthiazol-5-yl)phenyl)ethyl)pyrrolidine-2-carboxamide]
Dmax [2]: > 75%
DC50 [3]: < 2.5 nM

DC50 [4]: > 30 nM
Dmax [7]: > 75%
SMILES: Cc1ncsc1-c1ccc(CNC(=O)[C@@H]2C[C@@H](O)CN2C(=O)C(c2cc(CCCOCCOCCn3cc(-c4cc(-c5ccccc5O)nnc4N)cn3)no2)C(C)C)cc1 (stereo partly drawn) [compound 22, (2S,4R)-1-(2-(3-(3-(2-(2-(4-(3-amino-6-(2-hydroxyphenyl)pyridazin-4-yl)-1H-pyrazol-1-yl)ethoxy)ethoxy)propyl)isoxazol-5-yl)-3-methylbutanoyl)-4-hydroxy-N-(4-(4-methylthiazol-5-yl)benzyl)pyrrolidine-2-carboxamide]

DC50 [4]: 10 to 30 nM
Dmax [6]: 50 to 75%
SMILES: Cc1ncsc1-c1ccc([C@H](C)NC(=O)[C@@H]2C[C@@H](O)CN2C(=O)[C@H](c2cc(OCCN3CCC4(CC3)CC(OCCN3CCOC5(CCN(c6cc(-c7ccccc7O)nnc6N)CC5)C3)C4)no2)C(C)C)cc1 [compound 164, (2S,4R)-1-((S)-2-(3-(2-(2-(2-(9-(3-amino-6-(2-hydroxyphenyl)pyridazin-4-yl)-1-oxa-4,9-diazaspiro[5.5]undecan-4-yl)ethoxy)-7-azaspiro[3.5]nonan-7-yl)ethoxy)isoxazol-5-yl)-3-methylbutanoyl)-4-hydroxy-N-((S)-1-(4-(4-methylthiazol-5-yl)phenyl)ethyl)pyrrolidine-2-carboxamide]
